In patent publication US8372845B2, “Pyrazine derivatives as enac blockers” (Novartis AG, priority 2010, dated 2013):

How the values were obtained:
[1] = target: T1, epithelial sodium channel (ENaC) (Homo sapiens, UniProt P37088+P51168+P51170); assay: Short circuit current (ISC) measurements in Human Bronchial Epithelial cells (HBEC-ENaC); assay type: cell-based; details: inhibition of amiloride-sensitive ISC, HBECs at air-liquid interface, Ussing chamber, apical addition
T1 construct: host or cells: primary Human Bronchial Epithelial cells (HBECs), differentiated at air-liquid interface
T1 sequence (P37088 1-669): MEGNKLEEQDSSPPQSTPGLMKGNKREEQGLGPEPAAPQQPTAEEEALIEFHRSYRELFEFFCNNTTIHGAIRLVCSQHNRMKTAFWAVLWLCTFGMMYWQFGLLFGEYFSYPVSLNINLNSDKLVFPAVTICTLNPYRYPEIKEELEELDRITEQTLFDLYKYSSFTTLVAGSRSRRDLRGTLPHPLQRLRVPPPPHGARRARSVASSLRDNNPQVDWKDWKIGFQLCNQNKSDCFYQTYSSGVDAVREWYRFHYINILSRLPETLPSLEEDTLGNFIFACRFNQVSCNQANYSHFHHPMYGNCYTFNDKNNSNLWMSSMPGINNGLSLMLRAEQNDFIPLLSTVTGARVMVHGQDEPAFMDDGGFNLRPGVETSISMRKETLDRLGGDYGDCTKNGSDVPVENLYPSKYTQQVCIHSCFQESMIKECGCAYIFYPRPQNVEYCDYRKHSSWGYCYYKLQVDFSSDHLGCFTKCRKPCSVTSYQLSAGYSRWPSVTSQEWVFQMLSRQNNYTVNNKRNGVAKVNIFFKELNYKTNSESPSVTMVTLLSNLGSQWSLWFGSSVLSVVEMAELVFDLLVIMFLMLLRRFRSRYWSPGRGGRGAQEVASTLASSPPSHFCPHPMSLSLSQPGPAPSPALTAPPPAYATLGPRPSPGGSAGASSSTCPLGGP
T1 sequence (P51168 1-640): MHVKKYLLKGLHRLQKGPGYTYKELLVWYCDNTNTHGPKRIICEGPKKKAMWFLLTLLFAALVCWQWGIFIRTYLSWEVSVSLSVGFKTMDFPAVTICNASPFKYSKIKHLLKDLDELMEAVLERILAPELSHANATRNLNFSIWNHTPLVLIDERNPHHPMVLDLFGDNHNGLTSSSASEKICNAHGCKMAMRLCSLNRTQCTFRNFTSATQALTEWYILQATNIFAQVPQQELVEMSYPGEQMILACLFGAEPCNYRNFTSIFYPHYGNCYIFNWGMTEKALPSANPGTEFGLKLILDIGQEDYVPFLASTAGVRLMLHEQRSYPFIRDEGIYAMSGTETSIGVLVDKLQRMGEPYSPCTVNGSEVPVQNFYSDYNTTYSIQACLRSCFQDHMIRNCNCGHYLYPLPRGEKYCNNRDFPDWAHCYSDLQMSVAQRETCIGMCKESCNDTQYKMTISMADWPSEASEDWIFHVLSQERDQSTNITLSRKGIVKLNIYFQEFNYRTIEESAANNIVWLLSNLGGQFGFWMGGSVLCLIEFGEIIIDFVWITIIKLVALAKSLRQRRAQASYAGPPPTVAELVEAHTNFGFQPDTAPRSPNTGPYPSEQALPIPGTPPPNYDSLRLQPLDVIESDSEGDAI
T1 sequence (P51170 1-649): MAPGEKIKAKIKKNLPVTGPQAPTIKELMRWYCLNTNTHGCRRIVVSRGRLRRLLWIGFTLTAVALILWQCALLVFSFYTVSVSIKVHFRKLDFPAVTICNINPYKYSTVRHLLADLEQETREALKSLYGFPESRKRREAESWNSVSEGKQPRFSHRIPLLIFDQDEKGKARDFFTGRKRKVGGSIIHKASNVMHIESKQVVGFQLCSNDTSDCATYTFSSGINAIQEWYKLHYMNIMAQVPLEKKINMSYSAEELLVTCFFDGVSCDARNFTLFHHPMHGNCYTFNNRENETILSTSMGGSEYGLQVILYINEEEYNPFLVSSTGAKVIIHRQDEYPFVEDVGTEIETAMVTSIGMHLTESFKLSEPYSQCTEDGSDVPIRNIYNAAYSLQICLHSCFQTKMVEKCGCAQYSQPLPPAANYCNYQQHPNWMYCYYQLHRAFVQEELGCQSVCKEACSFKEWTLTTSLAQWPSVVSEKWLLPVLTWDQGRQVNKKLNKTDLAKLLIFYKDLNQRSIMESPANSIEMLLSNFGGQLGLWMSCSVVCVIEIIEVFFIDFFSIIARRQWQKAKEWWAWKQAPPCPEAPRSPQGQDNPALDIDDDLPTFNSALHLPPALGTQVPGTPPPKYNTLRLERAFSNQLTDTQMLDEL
Protocol: Human Bronchial Epithelial cells (HBECs) (Cambrex) were cultured under air-liquid interface conditions to provide a well differentiated mucociliary phenotype.
Medium was changed every 48 hours until cells were 90% confluent. […] Cells were maintained submerged for the first 7 days in culture, after which time they were exposed to an apical air interface for the remainder of the culture period. At this time, media was changed to DMEM:F12 media containing 2% v/v Ultroser G for the remainder of culture. Amphotericin B was removed from all media 3 feeds prior to use in the Ussing Chambers. Cells were used between days 7 and 21 after establishment of the apical-air interface. At all stages of culture, cells were maintained at 37° C. in 5% CO2 in an air incubator.
Short Circuit Current (ISC) Measurements
Snapwell inserts were mounted in Vertical Diffusion Chambers (Costar) and were bathed with continuously gassed Ringer solution (5% CO2 in O2; pH 7.4) maintained at 37° C. containing (in mM): 120 NaCl, 25 NaHCO3, 3.3 KH2PO4, 0.8 K2HPO4, 1.2 CaCl2, 1.2 MgCl2, and 10 glucose. The solution osmolarity was between 280 and 300 mOsmol/kg H2O for all physiological salt solutions used. Cells were voltage clamped to 0 mV (model EVC4000; WPI). RT was measured by applying a 1- or 2-mV pulse at 30-s intervals and calculating RT by Ohm's law. Data were recorded using a PowerLab workstation (ADInstruments).
Test compounds were prepared as a 10 mM stock solution in DMSO (95%). Serial 3-fold dilutions were freshly prepared in an appropriate vehicle (distilled H2O or Ringers solution). The initial concentration was added to the apical chamber as a 1000× concentrate in 5 μL, resulting in a final 1× concentration the 5 mL volume of the Ussing chamber. Subsequent additions of compound were added in a 3.3 μL volume of the 1000× serially diluted stock solution. At the completion of the concentration-response experiment, amiloride (10 μM) was added into the apical chamber to enable the total amiloride-sensitive current to be measured. An amiloride control IC50 was established at the start of each experiment.
Results are expressed as the mean % inhibition of the amiloride-sensitive ISC. […] Cell inserts were typically run in duplicate and the IC50 calculated on the mean % inhibition data.

[2] = Stability in human plasma; assay type: in vitro ADME; details: pooled human plasma (lithium heparin), 1 μM compound, 37° C., 1 hour incubation
Protocol: The stability of the compounds of the invention in human plasma may be measured as follows:
Stability in Human Plasma
Blood was taken from healthy volunteers in lithium heparin tubes and plasma was prepared by centrifugal separation of blood cells at 1500 g. Plasma from at least 3 individuals was pooled and used for compound stability determination.
Compounds were prepared in 100% DMSO at a concentration of 10 mM and serially diluted to a concentration of 100 μM. Incubations were performed at a final concentration of 1 μM and were initiated by addition of 3 μl of 100 μM compound stock solution into 297 μl plasma, pre-warmed in a water bath to 37° C., followed by brief vortex mixing. 50 μl aliquots of plasma were removed at 4 timepoints over a 1 hour incubation period and quenched immediately by protein precipitation achieved by addition of the aliquot of plasma to a pre-prepared 96 well plate containing 150 μl of acetonitrile containing an appropriate internal standard. Acetonitrile quenched samples were vortex mixed followed by centrifugation for 20 minutes at 1500 g to remove the precipitated proteins. Initial compound levels (at time=0 minutes) was established by spiking compound into pre-quenched plasma at the same concentration as used in the incubation. The supernatant was then removed, diluted 1:1 with water and analysed for compound remaining by liquid chromatography-tandem mass spectrometry (Waters Acquity HPLC, Applied Biosystems API4000). The plasma elimination rate constant of the compound was calculated by fitting the peak area ratio of compound:internal standard to an exponential decay function and the half life calculated by division of the natural log of 2 by the elimination rate constant (Microsoft Excel).

CCCN(CCC)C(=O)COC(=O)COc1ccc(CCC(=O)N2CCC3(CC2)CN/C(=N\C(=O)c2nc(Cl)c(N)nc2N)N3)cc1Cl [Example 3.0, [2-Chloro-4-(3-{2-[(E)-3,5-diamino-6-chloro-pyrazine-2-carbonylimino]-1,3,8-triaza-spiro[4.5]dec-8-yl}-3-oxo-propyl)-phenoxy]-acetic acid dipropylcarbamoylmethyl ester]
IC50 [1]: 11 nM | half-life at 1 μM [2]: 2 min

Nc1nc(N)c(C(=O)/N=C2\NCC3(CCN(C(=O)c4cccc(S(=O)(=O)NCCC(=O)OCC(=O)N5CCCC5C(F)(F)F)c4)CC3)N2)nc1Cl (centres unmarked) [Example 4.0, 3-(3-{2-[(E)-3,5-Diamino-6-chloro-pyrazine-2-carbonylimino]-1,3,8-triaza-spiro[4.5]decane-8-carbonyl}-benzenesulfonylamino)-propionic acid 2-oxo-2-(2-trifluoromethyl-pyrrolidin-1-yl)-ethyl ester]
IC50 [1]: 101 nM | half-life at 1 μM [2]: 28 min

Nc1nc(N)c(C(=O)/N=C2\NCC3(CCN(C(=O)CCc4ccc(OCC(=O)OCCN5CCCCC5=O)c(Cl)c4)CC3)N2)nc1Cl [Example 4.1, [2-Chloro-4-(3-{2-[(E)-3,5-diamino-6-chloro-pyrazine-2-carbonylimino]-1,3,8-triaza-spiro[4.5]dec-8-yl}-3-oxo-propyl)-phenoxy]-acetic acid 2-(2-oxo-piperidin-1-yl)ethyl ester]
IC50 [1]: 132 nM | half-life at 1 μM [2]: 3 min

Nc1nc(N)c(C(=O)/N=C2\NCC3(CCN(C(=O)CCc4ccc(OCC(=O)OCC(=O)N5CCOCC5)cc4)CC3)N2)nc1Cl [Example 4.2, [4-(3-{2-[(E)-3,5-Diamino-6-chloro-pyrazine-2-carbonylimino]-1,3,8-triaza-spiro[4.5]dec-8-yl}-3-oxo-propyl)-phenoxy]-acetic acid 2-morpholin-4-yl-2-oxo-ethyl ester]
IC50 [1]: 450 nM | half-life at 1 μM [2]: 4 min

CCCN(CCC)C(=O)COC(=O)C1(CNS(=O)(=O)c2cccc(C(=O)N3CCC4(CC3)CN/C(=N\C(=O)c3nc(Cl)c(N)nc3N)N4)c2)CCC1 [Example 5.0, 1-[(3-{2-[(E)-3,5-Diamino-6-chloro-pyrazine-2-carbonylimino]-1,3,8-triaza-spiro[4.5]decane-8-carbonyl}-benzenesulfonylamino)-methyl]-cyclobutanecarboxylic acid dipropylcarbamoylmethyl ester]
IC50 [1]: 12 nM | half-life at 1 μM [2]: 5 min

CCCN(CCC)C(=O)COC(=O)CCNC(=O)Nc1cccc(C(=O)N2CCC3(CC2)CN/C(=N\C(=O)c2nc(Cl)c(N)nc2N)N3)c1 [Example 5.1, 3-[3-(3-{2-[(E)-3,5-Diamino-6-chloro-pyrazine-2-carbonylimino]-1,3,8-triaza-spiro[4.5]decane-8-carbonyl}-phenyl)-ureido]-propionic acid dipropylcarbamoylmethyl ester]
IC50 [1]: 31 nM | half-life at 1 μM [2]: 2 min

Nc1nc(N)c(C(=O)/N=C2\NCC3(CCN(C(=O)c4cccc(S(=O)(=O)NCC5(C(=O)OCC(=O)N6CCCC6C(F)(F)F)CCC5)c4)CC3)N2)nc1Cl (centres unmarked) [Example 5.2, 1-[(3-{2-[(E)-3,5-Diamino-6-chloro-pyrazine-2-carbonylimino]-1,3,8-triaza-spiro[4.5]decane-8-carbonyl}-benzenesulfonylamino)-methyl]-cyclobutanecarboxylic acid 2-oxo-2-(2-trifluoromethyl-pyrrolidin-1-yl)-ethyl ester]
IC50 [1]: 19 nM | half-life at 1 μM [2]: 39 min
